Values joined by “and” are separate entries in the source; they are usually repeats but may differ in a detail not shown here. Equal entries are not always repeated. Inconclusive results and toxic doses are left out.
Test system: P388 leukemia ip, CD2F1 mice, survival T/C
Assay: NCI In Vivo Anticancer Drug Screen. Data for tumor model P388 Leukemia (intraperitoneal) in CD2F1 (CDF1) mice
Conditions: endpoint: median survival time, higher = longer survival
Method in brief: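 Mice carrying the transplanted tumor received test compound or vehicle. Survival was recorded in each group, and the value is the treated-group measurement divided by that of the vehicle-treated control group.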

[1] = dose: 50.0 mg/kg/injection, schedule: Q01DX009 (ip), vehicle: saline
[2] = dose: 100.0 mg/kg/injection, schedule: Q04DX003 (ip), vehicle: saline with Tween-80
[3] = dose: 50.0 mg/kg/injection, schedule: Q01DX005 (ip), vehicle: saline with Tween-80
[4] = dose: 100.0 mg/kg/injection, schedule: Q01DX005 (ip), vehicle: saline with Tween-80
[5] = dose: 200.0 mg/kg/injection, schedule: Q01DX005 (ip), vehicle: saline with Tween-80
[6] = dose: 50.0 mg/kg/injection, schedule: Q01DX009 (ip), vehicle: saline with Tween-80
[7] = dose: 100.0 mg/kg/injection, schedule: Q01DX009 (ip), vehicle: saline with Tween-80
[8] = dose: 200.0 mg/kg/injection, schedule: Q04DX003 (ip), vehicle: saline with Tween-80
[9] = dose: 400.0 mg/kg/injection, schedule: Q04DX003 (ip), vehicle: saline with Tween-80

SMILES: CCOc1ccccc1N=Nc1c(C)nn(C(=S)SC)c1OCC
- T/C (dose: 30.0 mg/kg/injection, schedule: Q01DX005 (ip), vehicle: Klucel + Tween-80): 91 % of control
- T/C (dose: 60.0 mg/kg/injection, schedule: Q01DX005 (ip), vehicle: Klucel + Tween-80): 88 % of control and 95 % of control
- T/C (dose: 120.0 mg/kg/injection, schedule: Q01DX005 (ip), vehicle: Klucel + Tween-80): 86 % of control

SMILES: CC(C)NCCO
- T/C [1]: 100 % of control
- T/C (dose: 50.0 mg/kg/injection, schedule: Q04DX003 (ip), vehicle: saline): 100 % of control
- T/C (dose: 100.0 mg/kg/injection, schedule: Q04DX003 (ip), vehicle: saline): 109 % of control
- T/C (dose: 200.0 mg/kg/injection, schedule: Q04DX003 (ip), vehicle: saline): 109 % of control

SMILES: COc1cc(CNNc2ccc(NC(C)=O)cc2N)ccc1OC(C)=O
- T/C (dose: 25.0 mg/kg/injection, schedule: Q04DX003 (ip), vehicle: saline with Tween-80): 94 % of control
- T/C (dose: 50.0 mg/kg/injection, schedule: Q04DX003 (ip), vehicle: saline with Tween-80): 91 % of control
- T/C [2]: 86 % of control

SMILES: CC(C)(C)C(=O)CP(=O)(O)O (tested in a mixture with another compound)
- T/C [1]: 105 % of control
- T/C (dose: 100.0 mg/kg/injection, schedule: Q01DX009 (ip), vehicle: saline): 101 % of control

SMILES: CN(C)CCC=C1c2ccccc2C=Cc2ccccc21
- T/C (dose: 12.5 mg/kg/injection, schedule: Q01DX005 (ip), vehicle: saline): 103 % of control
- T/C (dose: 25.0 mg/kg/injection, schedule: Q01DX005 (ip), vehicle: saline): 95 % of control
- T/C (dose: 50.0 mg/kg/injection, schedule: Q01DX005 (ip), vehicle: saline): 112 % of control

SMILES: Cc1cc(=O)c2c([nH]1)c1c(c3[nH]c(C)cc(=O)c32)Oc2ccccc2O1
- T/C [3]: 93 % of control
- T/C [4]: 95 % of control
- T/C [5]: 97 % of control

SMILES: Cc1csc2n/c(=N/[N+](=O)[O-])sn12
- T/C (dose: 60.0 mg/kg/injection, schedule: Q01DX005 (ip), vehicle: saline with Tween-80): 92 % of control
- T/C (dose: 120.0 mg/kg/injection, schedule: Q01DX005 (ip), vehicle: saline with Tween-80): 103 % of control
- T/C (dose: 240.0 mg/kg/injection, schedule: Q01DX005 (ip), vehicle: saline with Tween-80): 120 % of control

SMILES: CC1(C(=O)OCc2ccccc2)NCCS1 (centres undefined)
- T/C [6]: 100 % of control
- T/C [7]: 96 % of control
- T/C (dose: 200.0 mg/kg/injection, schedule: Q01DX009 (ip), vehicle: saline with Tween-80): 109 % of control

SMILES: COC(=O)C(O)c1cccc(OC)c1 (centres undefined)
- T/C [2]: 113 % of control
- T/C [8]: 100 % of control
- T/C [9]: 109 % of control

SMILES: O=C(N/N=C\c1c(O)ccc2ccccc12)c1ccncc1
- T/C [3]: 104 % of control
- T/C [4]: 105 % of control

SMILES: C/C(=N\N=C(/[Se])N1CCC(C)CC1)c1ccccn1
- T/C [3]: 107 % of control
- T/C [4]: 100 % of control
- T/C [5]: 100 % of control

SMILES: COc1cc2cc(c1Cl)N(C)C(=O)C[C@H](OC(=O)[C@H](C)N(C)C(=O)CC(C)C)[C@]1(C)O[C@H]1[C@H](C)[C@@H]1C[C@@](O)(NC(=O)O1)[C@H](OC)C=C/C=C(\C)C2
- T/C (dose: 0.1 micrograms/kg/injection, schedule: Q01DX009 (ip), vehicle: saline): 107 % of control
- T/C (dose: 0.2 micrograms/kg/injection, schedule: Q01DX009 (ip), vehicle: saline): 107 % of control
- T/C (dose: 0.4 micrograms/kg/injection, schedule: Q01DX009 (ip), vehicle: saline): 114 % of control
- T/C (dose: 6.3 micrograms/kg/injection, schedule: Q01DX009 (ip), vehicle: saline + alcohol): 158 % of control
- T/C (dose: 12.5 micrograms/kg/injection, schedule: Q01DX009 (ip), vehicle: saline + alcohol): 169 % of control
- T/C (dose: 25.0 micrograms/kg/injection, schedule: Q01DX009 (ip), vehicle: saline + alcohol): 198 % of control

SMILES: S=c1[nH]c2cc(Cl)ccc2s1
- T/C [7]: 109 % of control
- T/C [2]: 100 % of control
- T/C [8]: 104 % of control
- T/C [9]: 109 % of control

SMILES: S=C1SCN(Cc2ccco2)CN1Cc1ccco1
- T/C [6]: 94 % of control
- T/C [7]: 94 % of control
